Measured values taken from ChEMBL document CHEMBL5649169 (ChemMedChem, 2018).

Assays:
[1] = target: Proteasomal ubiquitin receptor ADRM1 (Homo sapiens) (UniProt Q16186)
[2] = target: Rho guanine nucleotide exchange factor 2 (Homo sapiens) (UniProt Q92974)
[3] = target: ATP synthase F(1) complex subunit beta, mitochondrial (Homo sapiens) (UniProt P06576)
Anamorsin (Homo sapiens) = Anamorsin (Homo sapiens) (UniProt Q6FI81)
[4] = target: Casein kinase II subunit alpha' (Homo sapiens) (UniProt P19784)
[5] = target: Casein kinase II subunit beta (Homo sapiens) (UniProt P67870)
[6] = target: Eukaryotic translation initiation factor 6 (Homo sapiens) (UniProt P56537)
[7] = target: Extended synaptotagmin-2 (Homo sapiens) (UniProt A0FGR8)
[8] = target: RNA-binding protein EWS (Homo sapiens) (UniProt Q01844)
[9] = target: Fibroblast growth factor receptor 1 (Homo sapiens) (UniProt P11362)
[10] = target: Protein Aster-A (Homo sapiens) (UniProt Q96CP6)
[11] = target: Tyrosine-protein kinase HCK (Homo sapiens) (UniProt P08631)
[12] = target: Heterogeneous nuclear ribonucleoprotein U-like protein 1 (Homo sapiens) (UniProt Q9BUJ2)
[13] = target: Heat shock 70 kDa protein 1A/1B (Homo sapiens) (UniProt P0DMV8+P0DMV9)
[14] = target: Importin-4 (Homo sapiens) (UniProt Q8TEX9)
[15] = target: ER lumen protein-retaining receptor 2 (Homo sapiens) (UniProt P33947)
[16] = target: Importin subunit alpha-1 (Homo sapiens) (UniProt P52292)
[17] = target: Putative RNA-binding protein Luc7-like 2 (Homo sapiens) (UniProt Q9Y383)
[18] = target: Mitogen-activated protein kinase kinase kinase 1 (Homo sapiens) (UniProt Q13233)
[19] = target: Mitogen-activated protein kinase 11 (Homo sapiens) (UniProt Q15759)
[20] = target: N-alpha-acetyltransferase 15, NatA auxiliary subunit (Homo sapiens) (UniProt Q9BXJ9)
[21] = target: NADH dehydrogenase [ubiquinone] 1 alpha subcomplex subunit 5 (Homo sapiens) (UniProt Q16718)
[22] = target: Serine/threonine-protein kinase Nek3 (Homo sapiens) (UniProt P51956)
[23] = target: High affinity nerve growth factor receptor (Homo sapiens) (UniProt P04629)
[24] = target: Oxysterol-binding protein-related protein 8 (Homo sapiens) (UniProt Q9BZF1)
[25] = target: Polyadenylate-binding protein-interacting protein 1 (Homo sapiens) (UniProt Q9H074)
[26] = target: GPI-anchor transamidase component PIGS (Homo sapiens) (UniProt Q96S52)
[27] = target: Serine/threonine-protein kinase pim-1 (Homo sapiens) (UniProt P11309)
Plectin (Homo sapiens) = Plectin (Homo sapiens) (UniProt Q15149)
[28] = target: 26S proteasome non-ATPase regulatory subunit 1 (Homo sapiens) (UniProt Q99460)
[29] = target: 26S proteasome non-ATPase regulatory subunit 8 (Homo sapiens) (UniProt P48556)
[30] = target: Proteasome activator complex subunit 2 (Homo sapiens) (UniProt Q9UL46)
[31] = target: Ras-related protein Rab-5C (Homo sapiens) (UniProt P51148)
[32] = target: Protein RCC2 (Homo sapiens) (UniProt Q9P258)
[33] = target: Mitochondrial Rho GTPase 2 (Homo sapiens) (UniProt Q8IXI1)
[34] = target: Large ribosomal subunit protein uL30 (Homo sapiens) (UniProt P18124)
[35] = target: Protein transport protein Sec61 subunit beta (Homo sapiens) (UniProt P60468)
[36] = target: ADP/ATP translocase 2 (Homo sapiens) (UniProt P05141)
[37] = target: Structural maintenance of chromosomes protein 4 (Homo sapiens) (UniProt Q9NTJ3)
[38] = target: Microtubule cross-linking factor 3 (Homo sapiens) (UniProt Q5TF21)
[39] = target: TBC1 domain family member 5 (Homo sapiens) (UniProt Q92609)
[40] = target: Serine/threonine-protein kinase TBK1 (Homo sapiens) (UniProt Q9UHD2)
[41] = target: DNA topoisomerase 1 (Homo sapiens) (UniProt P11387)
Titin (Homo sapiens) = Titin (Homo sapiens) (UniProt Q8WZ42)
[42] = target: Ubiquitin carboxyl-terminal hydrolase 5 (Homo sapiens) (UniProt P45974)
[43] = target: Vitamin K epoxide reductase complex subunit 1-like protein 1 (Homo sapiens) (UniProt Q8N0U8)
Also: assay method not described here.

GPI-anchor transamidase component PIGS (Homo sapiens), sequence (Q96S52 whole entry): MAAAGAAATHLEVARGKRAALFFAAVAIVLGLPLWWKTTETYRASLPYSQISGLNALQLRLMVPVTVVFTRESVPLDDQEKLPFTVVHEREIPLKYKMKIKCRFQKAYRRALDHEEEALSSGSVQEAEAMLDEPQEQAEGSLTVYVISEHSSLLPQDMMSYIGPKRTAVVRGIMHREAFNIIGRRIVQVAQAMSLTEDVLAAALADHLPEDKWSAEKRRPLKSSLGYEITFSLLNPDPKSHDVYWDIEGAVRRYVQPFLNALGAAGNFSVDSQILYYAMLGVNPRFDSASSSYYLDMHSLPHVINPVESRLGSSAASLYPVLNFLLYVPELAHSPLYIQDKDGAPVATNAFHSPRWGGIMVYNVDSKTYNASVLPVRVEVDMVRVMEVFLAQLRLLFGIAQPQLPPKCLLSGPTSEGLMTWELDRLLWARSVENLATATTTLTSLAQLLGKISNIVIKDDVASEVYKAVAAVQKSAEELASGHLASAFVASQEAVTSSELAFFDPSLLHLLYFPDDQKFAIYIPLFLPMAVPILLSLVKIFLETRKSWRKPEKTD
26S proteasome non-ATPase regulatory subunit 1 (Homo sapiens), sequence (Q99460 whole entry): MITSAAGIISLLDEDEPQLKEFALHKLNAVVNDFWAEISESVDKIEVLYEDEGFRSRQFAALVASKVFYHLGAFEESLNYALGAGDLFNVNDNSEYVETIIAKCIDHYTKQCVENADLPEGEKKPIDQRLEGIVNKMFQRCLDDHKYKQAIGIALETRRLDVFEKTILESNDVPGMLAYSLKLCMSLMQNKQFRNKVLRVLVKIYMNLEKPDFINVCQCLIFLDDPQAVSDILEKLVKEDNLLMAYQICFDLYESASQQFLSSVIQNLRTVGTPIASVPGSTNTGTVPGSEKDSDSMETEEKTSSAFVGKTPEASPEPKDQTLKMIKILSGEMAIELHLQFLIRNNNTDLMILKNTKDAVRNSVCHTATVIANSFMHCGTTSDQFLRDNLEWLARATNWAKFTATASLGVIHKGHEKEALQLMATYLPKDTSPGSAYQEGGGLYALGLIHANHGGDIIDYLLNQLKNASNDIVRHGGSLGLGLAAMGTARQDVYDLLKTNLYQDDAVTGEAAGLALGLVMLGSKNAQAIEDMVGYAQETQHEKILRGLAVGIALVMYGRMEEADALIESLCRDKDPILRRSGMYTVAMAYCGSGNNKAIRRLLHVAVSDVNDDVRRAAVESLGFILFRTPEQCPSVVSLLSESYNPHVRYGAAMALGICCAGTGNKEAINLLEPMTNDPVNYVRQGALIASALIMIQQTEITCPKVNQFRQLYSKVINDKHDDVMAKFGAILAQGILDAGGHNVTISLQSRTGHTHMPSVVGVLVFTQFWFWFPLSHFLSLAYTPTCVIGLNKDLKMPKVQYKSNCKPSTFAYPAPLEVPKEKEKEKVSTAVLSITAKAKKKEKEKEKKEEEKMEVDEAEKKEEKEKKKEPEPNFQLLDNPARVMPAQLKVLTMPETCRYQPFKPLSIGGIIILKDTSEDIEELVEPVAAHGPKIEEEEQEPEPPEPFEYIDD
Anamorsin (Homo sapiens), sequence (Q6FI81 whole entry): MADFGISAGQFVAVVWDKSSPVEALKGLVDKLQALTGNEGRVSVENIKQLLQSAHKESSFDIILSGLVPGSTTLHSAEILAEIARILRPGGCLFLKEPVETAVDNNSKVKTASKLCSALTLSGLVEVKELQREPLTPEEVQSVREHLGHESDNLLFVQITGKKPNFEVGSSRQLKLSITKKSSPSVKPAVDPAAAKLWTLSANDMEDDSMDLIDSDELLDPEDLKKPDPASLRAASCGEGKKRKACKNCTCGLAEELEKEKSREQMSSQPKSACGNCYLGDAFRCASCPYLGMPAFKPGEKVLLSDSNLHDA
Serine/threonine-protein kinase Nek3 (Homo sapiens), sequence (P51956 whole entry): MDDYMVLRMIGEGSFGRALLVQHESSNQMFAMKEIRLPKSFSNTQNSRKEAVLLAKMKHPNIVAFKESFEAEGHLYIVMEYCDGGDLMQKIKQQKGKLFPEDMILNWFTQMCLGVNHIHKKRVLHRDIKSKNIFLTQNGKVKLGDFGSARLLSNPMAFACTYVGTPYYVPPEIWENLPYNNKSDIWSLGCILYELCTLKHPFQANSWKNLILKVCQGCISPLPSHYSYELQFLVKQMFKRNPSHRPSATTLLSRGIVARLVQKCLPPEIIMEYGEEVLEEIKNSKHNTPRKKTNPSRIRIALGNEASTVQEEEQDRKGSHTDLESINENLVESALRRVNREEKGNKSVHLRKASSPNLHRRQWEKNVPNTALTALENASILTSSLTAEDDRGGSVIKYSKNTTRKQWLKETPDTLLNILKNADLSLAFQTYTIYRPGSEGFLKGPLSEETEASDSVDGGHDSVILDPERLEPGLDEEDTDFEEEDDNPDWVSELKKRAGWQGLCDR
Polyadenylate-binding protein-interacting protein 1 (Homo sapiens), sequence (Q9H074 whole entry): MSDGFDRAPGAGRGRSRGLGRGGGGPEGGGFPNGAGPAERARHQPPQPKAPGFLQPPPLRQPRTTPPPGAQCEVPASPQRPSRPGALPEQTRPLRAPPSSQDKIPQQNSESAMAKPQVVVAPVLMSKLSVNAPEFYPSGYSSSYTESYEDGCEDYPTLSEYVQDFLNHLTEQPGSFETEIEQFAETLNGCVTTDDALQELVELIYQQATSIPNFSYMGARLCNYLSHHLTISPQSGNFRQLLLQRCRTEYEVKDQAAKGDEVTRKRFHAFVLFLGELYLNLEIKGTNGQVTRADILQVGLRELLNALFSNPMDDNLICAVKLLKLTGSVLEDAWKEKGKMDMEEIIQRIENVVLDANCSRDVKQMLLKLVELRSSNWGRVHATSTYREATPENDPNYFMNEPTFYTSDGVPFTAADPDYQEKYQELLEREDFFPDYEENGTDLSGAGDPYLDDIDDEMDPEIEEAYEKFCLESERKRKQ
Serine/threonine-protein kinase TBK1 (Homo sapiens), sequence (Q9UHD2 whole entry): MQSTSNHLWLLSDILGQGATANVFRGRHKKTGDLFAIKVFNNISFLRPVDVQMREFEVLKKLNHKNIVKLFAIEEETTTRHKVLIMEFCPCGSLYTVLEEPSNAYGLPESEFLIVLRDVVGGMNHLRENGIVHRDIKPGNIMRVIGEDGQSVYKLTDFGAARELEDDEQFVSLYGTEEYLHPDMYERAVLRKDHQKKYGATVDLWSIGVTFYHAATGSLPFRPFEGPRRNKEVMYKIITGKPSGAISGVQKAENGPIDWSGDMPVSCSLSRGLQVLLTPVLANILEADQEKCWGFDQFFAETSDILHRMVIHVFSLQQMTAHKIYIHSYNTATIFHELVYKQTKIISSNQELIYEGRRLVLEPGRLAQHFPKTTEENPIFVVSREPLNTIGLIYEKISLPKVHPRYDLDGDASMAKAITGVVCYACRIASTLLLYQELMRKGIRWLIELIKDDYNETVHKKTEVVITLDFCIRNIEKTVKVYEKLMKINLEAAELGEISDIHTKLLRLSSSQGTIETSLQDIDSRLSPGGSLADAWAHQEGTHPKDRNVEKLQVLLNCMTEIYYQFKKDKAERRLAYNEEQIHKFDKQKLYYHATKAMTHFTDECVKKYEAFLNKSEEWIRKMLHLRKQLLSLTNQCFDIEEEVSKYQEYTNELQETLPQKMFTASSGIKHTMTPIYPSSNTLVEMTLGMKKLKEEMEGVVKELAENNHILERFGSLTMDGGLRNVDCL
DNA topoisomerase 1 (Homo sapiens), sequence (P11387 whole entry): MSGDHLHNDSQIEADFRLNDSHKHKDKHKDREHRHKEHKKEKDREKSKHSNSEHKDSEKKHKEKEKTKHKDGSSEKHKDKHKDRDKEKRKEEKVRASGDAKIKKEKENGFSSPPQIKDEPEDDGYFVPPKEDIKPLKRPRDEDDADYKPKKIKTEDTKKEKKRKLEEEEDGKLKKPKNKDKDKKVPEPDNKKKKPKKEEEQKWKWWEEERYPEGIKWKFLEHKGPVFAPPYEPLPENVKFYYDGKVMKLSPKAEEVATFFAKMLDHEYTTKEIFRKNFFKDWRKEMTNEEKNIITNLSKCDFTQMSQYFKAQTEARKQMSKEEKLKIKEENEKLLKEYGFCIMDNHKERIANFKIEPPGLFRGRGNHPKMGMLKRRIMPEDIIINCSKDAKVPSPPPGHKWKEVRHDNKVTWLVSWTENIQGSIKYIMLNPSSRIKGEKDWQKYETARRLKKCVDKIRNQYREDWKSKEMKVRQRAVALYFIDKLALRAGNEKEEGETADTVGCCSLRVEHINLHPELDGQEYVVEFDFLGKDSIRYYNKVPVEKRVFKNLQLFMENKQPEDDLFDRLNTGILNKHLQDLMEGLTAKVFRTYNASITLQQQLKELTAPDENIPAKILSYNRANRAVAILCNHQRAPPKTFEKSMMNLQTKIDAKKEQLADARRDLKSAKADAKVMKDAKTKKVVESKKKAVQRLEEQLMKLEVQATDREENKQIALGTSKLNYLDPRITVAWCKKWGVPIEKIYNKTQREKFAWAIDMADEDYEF
Putative RNA-binding protein Luc7-like 2 (Homo sapiens), sequence (Q9Y383 whole entry): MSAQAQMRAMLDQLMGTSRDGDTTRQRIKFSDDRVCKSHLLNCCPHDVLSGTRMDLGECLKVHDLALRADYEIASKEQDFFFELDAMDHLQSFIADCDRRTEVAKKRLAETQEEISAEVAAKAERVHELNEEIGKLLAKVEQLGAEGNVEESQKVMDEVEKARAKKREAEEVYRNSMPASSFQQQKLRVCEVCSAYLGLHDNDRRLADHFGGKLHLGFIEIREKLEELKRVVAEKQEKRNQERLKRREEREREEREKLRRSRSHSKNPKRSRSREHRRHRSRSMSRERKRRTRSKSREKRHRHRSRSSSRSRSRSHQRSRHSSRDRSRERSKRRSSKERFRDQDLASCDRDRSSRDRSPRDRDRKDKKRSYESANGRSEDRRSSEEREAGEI
ER lumen protein-retaining receptor 2 (Homo sapiens), sequence (P33947 whole entry): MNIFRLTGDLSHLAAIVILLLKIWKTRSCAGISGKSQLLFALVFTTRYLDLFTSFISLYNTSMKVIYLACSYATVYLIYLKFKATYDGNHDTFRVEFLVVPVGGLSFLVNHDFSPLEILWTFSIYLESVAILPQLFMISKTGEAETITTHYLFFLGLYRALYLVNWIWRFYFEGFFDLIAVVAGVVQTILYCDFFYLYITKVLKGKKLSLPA
Protein transport protein Sec61 subunit beta (Homo sapiens), sequence (P60468 whole entry): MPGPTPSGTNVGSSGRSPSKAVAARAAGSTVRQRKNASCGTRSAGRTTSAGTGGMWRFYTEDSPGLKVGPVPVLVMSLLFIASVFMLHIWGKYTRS

Cc1ccc(C(=O)Nc2cccc(C(F)(F)F)c2)cc1Nc1nc(-c2cccnc2)nc2c1cnn2C
ED50 [1]: 7.09 µM | ED50 [2]: 9.51 µM | ED50 [3]: 0.882 µM | ED50 (Anamorsin (Homo sapiens)): 0.0673 µM | ED50 [4]: 3.31 µM | ED50 [5]: 0.109 µM | ED50 [6]: 3 µM | ED50 [7]: 0.041 µM | ED50 [8]: 54.1 µM | ED50 [9]: 11.2 µM | ED50 [10]: 29.6 µM | ED50 [11]: 22 µM | ED50 [12]: 0.922 µM | ED50 [13]: 0.181 µM | ED50 [14]: 6.36 µM | ED50 [15]: 0.109 µM | ED50 [16]: 7.33 µM | ED50 [17]: 1.77 µM | ED50 [18]: 6.12 µM | ED50 [19]: 0.0255 µM | ED50 [20]: 11.7 µM | ED50 [21]: 5.05 µM | ED50 [22]: 4.18 µM | ED50 [23]: 0.0169 µM | ED50 [24]: 0.128 µM | ED50 [25]: 13.9 µM | ED50 [26]: 0.0298 µM | ED50 [27]: 0.0583 µM | ED50 (Plectin (Homo sapiens)): 11.9 µM | ED50 [28]: 0.0138 µM | ED50 [29]: 8.9 µM | ED50 [30]: 1.06 µM | ED50 [31]: 19.2 µM | ED50 [32]: 92.2 µM | ED50 [33]: 1.14 µM | ED50 [34]: 0.0167 µM | ED50 [35]: 11.5 µM | ED50 [36]: 2.54 µM | ED50 [37]: 7.32 µM | ED50 [38]: 11.9 µM | ED50 [39]: 24 µM | ED50 [40]: 0.0187 µM | ED50 [41]: 0.0425 µM | ED50 (Titin (Homo sapiens)): 0.0522 µM | ED50 [42]: 130 µM | ED50 [43]: 5.89 µM

Cc1ccc(C(=O)Nc2cccc(C(F)(F)F)c2)cc1Nc1nc(-c2cccnc2)nc2nn(C)cc12
ED50 [1]: 0.0135 µM | ED50 [2]: 0.0484 µM | ED50 [3]: 2.31 µM | ED50 (Anamorsin (Homo sapiens)): 78.8 µM | ED50 [4]: 110 µM | ED50 [5]: 0.0889 µM | ED50 [6]: 0.223 µM | ED50 [7]: 0.0286 µM | ED50 [8]: 11.8 µM | ED50 [9]: 0.0526 µM | ED50 [10]: 0.495 µM | ED50 [11]: 0.0555 µM | ED50 [12]: 2.56 µM | ED50 [13]: 1.61 µM | ED50 [14]: 1810 µM | ED50 [15]: 0.051 µM | ED50 [16]: 0.00566 µM | ED50 [17]: 4.27 µM | ED50 [18]: 3.34 µM | ED50 [19]: 6.69 µM | ED50 [20]: 2.07 µM | ED50 [21]: 0.253 µM | ED50 [22]: 10.7 µM | ED50 [23]: 0.773 µM | ED50 [24]: 650 µM | ED50 [25]: 0.00552 µM | ED50 [26]: 0.255 µM | ED50 [27]: 0.0901 µM | ED50 (Plectin (Homo sapiens)): 0.011 µM | ED50 [28]: 4.32 µM | ED50 [29]: 0.0341 µM | ED50 [30]: 9.77 µM | ED50 [31]: 13.9 µM | ED50 [32]: 37.9 µM | ED50 [33]: 97 µM | ED50 [34]: 12.3 µM | ED50 [35]: 3 µM | ED50 [36]: 0.186 µM | ED50 [37]: 7.29 µM | ED50 [38]: 0.00526 µM | ED50 [39]: 0.0265 µM | ED50 [40]: 3.85 µM | ED50 [41]: 0.00653 µM | ED50 (Titin (Homo sapiens)): 0.0126 µM | ED50 [42]: 0.00988 µM | ED50 [43]: 2.51 µM
